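Cells were grown in 96-well plates and exposed to each compound for 48 hours at five concentrations; endpoints were interpolated linearly between bracketing concentrations, or set to the highest concentration if not reached. GI50 marks 50% less growth.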 Calls of active or inactive are those of the source. No stated cut-off is given here; in the data, active = GI50 up to about 1.1 µM and inactive = higher.
Legend:
Test in all cases: NCI-60 cell line screen, 48 h
[1] = system: CAKI-1
[2] = system: IGROV-1
[3] = system: K562
[4] = system: KM12
[5] = system: M14
[6] = system: NCI-H226
[7] = system: OVCAR-8
[8] = system: SF-268
[9] = system: SK-MEL-28
[10] = system: SK-MEL-2
[11] = system: SN12C
[12] = system: TK-10
[13] = system: UACC-62
[14] = system: HL-60
[15] = system: HOP-62
[16] = system: SR

Measured: GI50

Cc1cc2c(=O)cc(-c3ccc(F)cc3)oc2c(C(=O)O)c1C
inactive: [1] > 100 µM | [2] > 100 µM | [3] > 100 µM | [4] > 100 µM | [5] > 100 µM | [6] > 100 µM | [7] > 100 µM | [8] > 100 µM | [9] > 100 µM | [10] > 100 µM | [11] > 100 µM | [12] > 100 µM | [13] > 100 µM

COC(=O)C1CC(C(=O)OC)c2nc3cc([N+](=O)[O-])ccc3nc21 (centres undefined)
inactive: [1] 59.8 µM | [14] 7.23 µM | [15] > 52.8 µM | [2] 80.7 µM | [3] 14.7 µM | [4] 23.1 µM | [5] 39 µM | [6] > 100 µM | [7] > 90.4 µM | [8] 26.4 µM | [9] > 77.3 µM | [10] > 100 µM | [11] > 79.3 µM | [12] > 100 µM | [13] 22.6 µM

Cc1cc(=O)c2c(O)cc3c(c2o1)CC=C(COC1OC(COC2OC(CO)C(O)C(O)C2O)C(O)C(O)C1O)CO3 (centres undefined)
inactive: [1] > 100 µM | [15] > 100 µM | [2] > 100 µM | [3] > 100 µM | [4] > 100 µM | [5] > 100 µM | [6] > 100 µM | [7] > 100 µM | [8] > 100 µM | [9] > 100 µM | [10] > 100 µM | [11] > 100 µM | [16] > 100 µM | [12] > 100 µM | [13] > 100 µM

BrC1=CC=C2NC=CC3=CC=NC1C32 (centres undefined)
inactive: [14] 4.08 µM | [15] 25.5 µM | [2] 25.6 µM | [3] 12.2 µM | [4] 24.2 µM | [5] 18 µM | [6] 14.2 µM | [7] 16.4 µM | [8] 15.5 µM | [9] 37.7 µM | [10] 18.9 µM | [11] 18.6 µM | [16] 4.57 µM | [12] 34.1 µM | [13] 9.53 µM

COc1ccc2c3c1C(=O)CCC3CO2 (centres undefined)
inactive: [1] > 100 µM | [14] > 100 µM | [15] > 100 µM | [2] > 100 µM | [3] > 100 µM | [4] > 100 µM | [5] > 100 µM | [7] > 100 µM | [8] > 100 µM | [9] > 100 µM | [10] > 100 µM | [11] > 100 µM | [12] > 100 µM | [13] > 100 µM

CC1(C)CC2CC(CC(C)(C)C2=O)C1=O
inactive: [1] > 100 µM | [14] > 100 µM | [15] > 100 µM | [2] > 100 µM | [3] > 100 µM | [4] > 100 µM | [5] > 100 µM | [7] > 100 µM | [8] > 100 µM | [9] > 100 µM | [10] > 100 µM | [11] > 100 µM | [16] > 100 µM | [12] > 100 µM | [13] > 100 µM

N#Cc1cn(-c2c3ccccc3nc3ccccc23)c(=O)[nH]c1=O
inactive: [1] 5.75 µM | [14] 10.6 µM | [2] 23.3 µM | [3] 3.67 µM | [4] 7.16 µM | [5] 11.6 µM | [7] 4.85 µM | [8] 4.74 µM | [9] 16.8 µM | [10] 10.8 µM | [16] 3.31 µM | [12] 21.5 µM | [13] 15.8 µM

O=C(O)CCNS(=O)(=O)c1ccc([N+](=O)[O-])cc1
inactive: [1] > 100 µM | [14] > 100 µM | [2] > 100 µM | [3] > 100 µM | [4] > 100 µM | [5] > 100 µM | [6] > 100 µM | [7] > 100 µM | [8] > 100 µM | [9] > 100 µM | [10] > 100 µM | [11] > 100 µM | [12] > 100 µM | [13] > 100 µM

CC1(C)OC(=S)N(c2ccccc2)C12C=Cc1cc3ccccc3nc1S2 (centres undefined)
inactive: [14] 40.9 µM | [15] > 100 µM | [2] > 100 µM | [3] 33.4 µM | [4] > 100 µM | [5] > 100 µM | [6] > 100 µM | [7] > 100 µM | [8] > 100 µM | [9] > 100 µM | [10] > 100 µM | [11] > 100 µM | [16] 22.4 µM | [12] > 100 µM | [13] > 100 µM

CC1(C)CC(=O)C/C(=N/c2ccc([N+](=O)[O-])cc2)C1
inactive: [14] 80.5 µM | [15] > 100 µM | [2] > 100 µM | [3] 35.6 µM | [4] > 100 µM | [5] > 100 µM | [6] > 100 µM | [7] > 100 µM | [8] > 100 µM | [9] > 100 µM | [10] > 100 µM | [11] 71.8 µM | [16] 57 µM | [12] > 100 µM | [13] > 100 µM

CC(C)c1ccc(C2C3=C(N=C4SCC(=O)N42)C(=O)c2ccccc23)cc1 (centres undefined)
inactive: [1] 99.1 µM | [14] 36 µM | [15] > 100 µM | [2] > 100 µM | [3] 54 µM | [4] > 100 µM | [5] > 100 µM | [6] 51.4 µM | [7] > 100 µM | [8] 37.1 µM | [9] 35.1 µM | [10] > 100 µM | [11] 41 µM | [12] > 100 µM | [13] 33.7 µM

CN1C2C=C(c3ccccc3)CC1CC2 (centres undefined)
inactive: [14] > 100 µM | [2] > 100 µM | [3] > 100 µM | [4] > 100 µM | [5] > 100 µM | [7] > 100 µM | [8] > 100 µM | [9] > 100 µM | [10] > 100 µM | [11] > 100 µM | [16] > 100 µM | [12] > 100 µM | [13] > 100 µM

Cc1ccc(S(=O)(=O)c2c3nc4ccccc4nc3n3c2[nH]c2ccccc23)cc1
inactive: [1] > 100 µM | [14] > 100 µM | [15] > 100 µM | [2] 8.13 µM | [3] > 100 µM | [4] 58.1 µM | [5] > 100 µM | [7] > 100 µM | [8] > 100 µM | [9] > 100 µM | [10] > 100 µM | [11] > 100 µM | [16] > 100 µM | [12] > 100 µM | [13] 25.7 µM

CCOc1cccc2ccc[n+](CC)c12
inactive: [15] > 100 µM | [2] > 100 µM | [3] 25.1 µM | [4] 49.7 µM | [5] > 100 µM | [6] > 100 µM | [7] 25.2 µM | [8] 12.2 µM | [9] > 100 µM | [11] 53.1 µM | [12] > 100 µM | [13] > 100 µM

COc1cc2c(oc(=O)c3c4occc4cc(OC)c23)c2cccc(O)c12
inactive: [1] > 100 µM | [14] > 100 µM | [15] > 100 µM | [2] > 100 µM | [3] > 100 µM | [4] > 100 µM | [5] > 100 µM | [6] > 100 µM | [7] > 100 µM | [8] > 100 µM | [9] > 100 µM | [11] > 100 µM | [12] > 100 µM | [13] > 100 µM

CC(C)NC1CCCCC2c3cc(F)ccc3[C@]12O (some centres undefined)
inactive: [1] > 100 µM | [14] > 100 µM | [15] > 100 µM | [2] > 100 µM | [3] > 100 µM | [4] > 100 µM | [5] > 100 µM | [6] > 100 µM | [7] > 100 µM | [8] > 100 µM | [9] > 100 µM | [10] > 100 µM | [11] > 100 µM | [12] > 100 µM | [13] > 100 µM

C[C@@]12CCCC(=O)N1[C@@H](CO)C(c1ccccc1)O2 (some centres undefined)
inactive: [1] > 100 µM | [15] > 100 µM | [2] > 100 µM | [3] > 100 µM | [4] > 100 µM | [7] > 100 µM | [8] > 100 µM | [9] > 100 µM | [10] > 100 µM | [11] > 100 µM | [12] > 100 µM | [13] > 100 µM

C[C@@H](c1ccccc1)N(CC#N)C1CCC[C@H]1O (some centres undefined)
inactive: [14] > 100 µM | [15] > 100 µM | [2] > 100 µM | [3] > 100 µM | [4] > 100 µM | [5] > 100 µM | [6] > 100 µM | [7] > 100 µM | [8] > 100 µM | [9] > 100 µM | [10] > 100 µM | [11] > 100 µM | [12] > 100 µM | [13] > 100 µM

Cn1cnc([N+](=O)[O-])c1SC1=NCCS1
inactive: [1] > 100 µM | [15] > 100 µM | [2] > 100 µM | [3] 28 µM | [4] > 100 µM | [5] 48 µM | [6] > 100 µM | [7] > 100 µM | [8] > 100 µM | [9] 55 µM | [10] 47.4 µM | [11] > 100 µM | [16] 24.5 µM | [12] > 100 µM | [13] 51.2 µM

Reference: ChEMBL document CHEMBL1201862, “PubChem BioAssay data set” (2004)
